Reference: ChEMBL document CHEMBL5614386, “Design, synthesis, and biological evaluation of novel 1-amido-2-one-4-thio-deoxypyranose as potential antitumor agents for multiple myeloma” (Bioorg Med Chem, 2024)
Active and inactive are the calls of the source. The calls are words filed in the database; no cut-off is given here.

Key:
NCI-H929 [1] = assay: Anti-proliferative activity against human NCI-H929 cells assessed as inhibition cell growth at 5 uM incubated for 72 hrs by CCK-8 assay; assay type: functional, cell-based
ARP-1 = assay: Anti-proliferative activity against human ARP-1 cells assessed as inhibition cell growth at 5 uM incubated for 72 hrs by CCK-8 assay; assay type: functional, cell-based
[2] = Anti-proliferative activity against human ARP-1 cells assessed as inhibition cell growth at 5 uM incubated for 72 hrs by CCK-8 assay relative to control; assay type: functional; set-up: scale not given: the % may be the effect or the level left
NCI-H929 [3] = assay: Anti-proliferative activity against human NCI-H929 cells assessed as inhibition cell growth at 5 uM incubated for 72 hrs by CCK-8 assay relative to control; assay type: functional; set-up: scale not given: the % may be the effect or the level left
[4] = Anti-proliferative activity against human ARP-1cells assessed as cell growth inhibition incubated for 72 hrs by CCK-8 assay; conditions: ARP-1, 72 h
NCI-H929 [5] = assay: Anti-proliferative activity against human NCI-H929 cells assessed as cell growth inhibition incubated for 72 hrs by CCK-8 assay; conditions: NCI-H929, 72 h

SMILES	Activity (NCI-H929 [1])	Activity (ARP-1)	Activity [2]	Activity (NCI-H929 [3])	IC50 [4]	IC50 (NCI-H929 [5])
CC(=O)OC[C@H]1O[C@@H](NC(=O)c2ccc3c(c2)OCO3)C(=O)CC1SCCc1cnccn1 (stereo not given in full)	Active	Active	–	–	–	–
COc1ccccc1SC1CC(=O)[C@H](NC(=O)c2ccccc2)O[C@@H]1COC(C)=O (stereo not given in full)	Active	Active	–	–	–	–
CNc1ccc(SC2CC(=O)[C@H](NC(=O)c3ccc4c(c3)OCO4)O[C@@H]2COC(C)=O)cc1 (stereo not given in full)	Active	Active	–	–	–	–
CC(=O)OC[C@H]1O[C@@H](NC(=O)c2ccc3c(c2)OCO3)C(O)CC1SCc1ccc(F)cc1 (stereo not given in full)	–	–	<20%	<20%	–	–
CC(=O)OC[C@H]1O[C@@H](NC(=O)c2ccccc2)C(=O)CC1SCCCCCCO (stereo not given in full)	Active	Active	–	–	–	–
CC(=O)OC[C@H]1O[C@@H](NC(=O)c2ccc3c(c2)OCO3)C(=O)CC1Sc1ccc(C)cc1 (stereo not given in full)	Active	Active	–	–	1.56 µM	0.85 µM
COc1ccc(CSC2CC(=O)[C@H](NC(=O)c3ccccc3)O[C@@H]2COC(C)=O)cc1 (stereo not given in full)	Active	Active	–	–	–	–
CC(=O)OC[C@H]1O[C@@H](NC(=O)c2ccc3c(c2)OCO3)C(=O)CC1SCc1ccc(Cl)cc1 (stereo not given in full)	Active	Active	–	–	–	–
CC(=O)OC[C@H]1O[C@@H](NC(=O)c2ccccc2)C(=O)CC1Sc1ccc(C)cc1 (stereo not given in full)	Active	Active	–	–	–	–
CC(=O)OC[C@H]1O[C@@H](NC(=O)c2ccc3c(c2)OCO3)C(=O)CC1SCCCCCCO (stereo not given in full)	Active	Active	–	–	–	–
CC(=O)OC[C@H]1O[C@@H](NC(=O)c2ccc3c(c2)OCO3)C(=O)CC1Sc1cc(C)cc(C)c1 (stereo not given in full)	Active	Active	–	–	2.29 µM	1.97 µM
CC(=O)OC[C@H]1O[C@@H](NC(=O)c2ccc3c(c2)OCO3)C(=O)CC1SCc1ccc(C(C)(C)C)cc1 (stereo not given in full)	Active	Active	–	–	–	–
COc1ccc(CSC2CC(O)[C@H](NC(=O)c3ccccc3)O[C@@H]2COC(C)=O)cc1 (stereo not given in full)	–	–	<20%	<20%	–	–
CC(=O)OC[C@H]1O[C@@H](NC(=O)c2ccccc2)C(=O)CC1Sc1ccc(Cl)cc1 (stereo not given in full)	Active	Active	–	–	1.04 µM	2.68 µM
CC(=O)OC[C@H]1O[C@@H](NC(=O)c2ccccc2)C(O)CC1Sc1ccc(F)cc1 (stereo not given in full)	–	–	<20%	<20%	–	–
CC(=O)OC[C@H]1O[C@@H](NC(=O)c2ccccc2)C(=O)CC1Sc1ccc(Br)cc1 (stereo not given in full)	Active	Active	–	–	–	–
COc1ccccc1SC1CC(=O)[C@H](NC(=O)c2ccc3c(c2)OCO3)O[C@@H]1COC(C)=O (stereo not given in full)	inactive	inactive	–	–	–	–
COc1ccc(C(=O)N[C@@H]2O[C@H](COC(C)=O)C(Sc3ccc(C)cc3)CC2=O)cc1 (stereo not given in full)	Active	Active	–	–	4.57 µM	1.6 µM
COc1ccc(SC2CC(O)[C@H](NC(=O)c3ccc(OC)cc3)O[C@@H]2COC(C)=O)cc1 (stereo not given in full)	–	–	<20%	<20%	–	–
COc1ccc(SC2CC(=O)[C@H](NC(=O)c3ccccc3)O[C@@H]2COC(C)=O)cc1OC (stereo not given in full)	Active	Active	–	–	–	–
COc1ccc(SC2CC(=O)[C@H](NC(=O)c3ccco3)O[C@@H]2COC(C)=O)cc1 (stereo not given in full)	Active	Active	–	–	–	–
CNc1ccc(SC2CC(O)[C@H](NC(=O)c3ccc4c(c3)OCO4)O[C@@H]2COC(C)=O)cc1 (stereo not given in full)	–	–	<20%	<20%	–	–
CC(=O)OC[C@H]1O[C@@H](NC(=O)c2ccc3c(c2)OCO3)C(=O)CC1SCCNC(=O)OC(C)(C)C (stereo not given in full)	Active	Active	–	–	–	–

SMILES	Activity (NCI-H929 [1])	Activity (ARP-1)	Activity [2]	Activity (NCI-H929 [3])	IC50 [4]	IC50 (NCI-H929 [5])
CC(=O)OC[C@H]1O[C@@H](NC(=O)c2ccccc2)C(=O)CC1SCc1ccc(C(C)(C)C)cc1 (stereo not given in full)	Active	Active	–	–	–	–
CC(=O)OC[C@H]1O[C@@H](NC(=O)c2ccccc2)C(=O)CC1SCc1ccc(Cl)cc1 (stereo not given in full)	Active	Active	–	–	–	–
CC(=O)OC[C@H]1O[C@@H](NC(=O)c2ccccc2)C(O)CC1Sc1ccc(Br)cc1 (stereo not given in full)	–	–	<20%	<20%	–	–
COc1ccc(SC2CC(=O)[C@H](NC(=O)c3ccccc3)O[C@@H]2COC(C)=O)cc1 (stereo not given in full)	Active	Active	–	–	–	–
CC(=O)OC[C@H]1O[C@@H](NC(=O)c2ccc3c(c2)OCO3)C(O)CC1SCc1ccc(Cl)cc1 (stereo not given in full)	–	–	<20%	<20%	–	–
CC(=O)OC[C@H]1O[C@@H](NC(=O)c2ccc3c(c2)OCO3)C(O)CC1Sc1ccc(C)cc1 (stereo not given in full)	–	–	<20%	<20%	–	–
CC(=O)OC[C@H]1O[C@@H](NC(=O)c2ccccc2)C(O)CC1SCc1ccc(F)cc1 (stereo not given in full)	–	–	<20%	<20%	–	–
COc1ccc(CSC2CC(=O)[C@H](NC(=O)c3ccc4c(c3)OCO4)O[C@@H]2COC(C)=O)cc1 (stereo not given in full)	Active	Active	–	–	–	–
CC(=O)OC[C@H]1O[C@@H](NC(=O)c2ccccc2)C(=O)CC1SCCc1cnccn1 (stereo not given in full)	Active	Active	–	–	–	–
CC(=O)OC[C@H]1O[C@@H](NC(=O)c2ccc3c(c2)OCO3)C(=O)CC1SCc1ccc(F)cc1 (stereo not given in full)	Active	Active	–	–	–	–
CC(=O)OC[C@H]1O[C@@H](NC(=O)c2ccc3c(c2)OCO3)C(O)CC1SCc1ccco1 (stereo not given in full)	–	–	<20%	<20%	–	–
COC1CC(=O)[C@H](NC(=O)c2ccc3c(c2)OCO3)O[C@@H]1COC(C)=O (stereo not given in full)	inactive	inactive	–	–	–	–
COc1ccc(SC2CC(O)[C@H](NC(=O)c3ccc4c(c3)OCO4)O[C@@H]2COC(C)=O)cc1 (stereo not given in full)	–	–	<20%	<20%	–	–
CC(=O)OC[C@H]1O[C@@H](NC(=O)c2ccc3c(c2)OCO3)C(=O)CC1SC1CCCC1 (stereo not given in full)	inactive	inactive	–	–	–	–
CC(=O)OC[C@H]1O[C@@H](NC(=O)c2ccccc2)C(=O)CC1SCc1ccco1 (stereo not given in full)	Active	Active	–	–	–	–
CC(=O)OC[C@H]1O[C@@H](NC(=O)c2ccccc2)C(O)CC1Sc1ccc(Cl)cc1 (stereo not given in full)	–	–	<20%	<20%	–	–
CC(=O)OC[C@H]1O[C@@H](NC(=O)c2ccccc2)C(=O)CC1Sc1ccc(F)cc1 (stereo not given in full)	Active	Active	–	–	–	–
CC(=O)OC[C@H]1O[C@@H](NC(=O)c2ccc3c(c2)OCO3)C(O)CC1Sc1cc(C)cc(C)c1 (stereo not given in full)	–	–	<20%	<20%	–	–
COc1ccc(SC2CC(O)[C@H](NC(=O)c3ccc4c(c3)OCO4)O[C@@H]2COC(C)=O)cc1OC (stereo not given in full)	–	–	<20%	<20%	–	–
COc1ccc(SC2CC(O)[C@H](NC(=O)c3ccccc3)O[C@@H]2COC(C)=O)cc1 (stereo not given in full)	–	–	<20%	<20%	–	–
CC(=O)OC[C@H]1O[C@@H](NC(=O)c2ccccc2)C(=O)CC1SCc1ccc(F)cc1 (stereo not given in full)	Active	Active	–	–	–	–
CC(=O)OC[C@H]1O[C@@H](NC(=O)c2ccccc2)C(=O)CC1SCCNC(=O)OC(C)(C)C (stereo not given in full)	Active	Active	–	–	–	–
CC(=O)OC[C@H]1O[C@@H](NC(=O)c2ccccc2)C(O)CC1Sc1ccc(C)cc1 (stereo not given in full)	–	–	<20%	<20%	–	–
